Several values for one entry are separate records, joined by “and”; a condition that tells them apart may be missing. Equal entries are not always repeated. Where two headings read alike, the source gives them in different places.
Tests used:
[1] = Steady-state plasma pharmacokinetics of BDQ, M2 and TBI-166 in BALB/c mice; details: for AUC(0-t): Plasma; for t 1/2: after last dose
[2] = Plasma concentration 3 h post dose in murine model of tuberculosis; type: in vivo, BALB/c mice infected with M. tuberculosis H37Rv; details: TB model; for plasma concentration after coadministration as percent of BDQ alone: 3 h post dose, p < 0.05; for concentration at 3 h: female, BALB/c, mouse, plasma, read-out: Mean plasma concentration at three hours after oral administration
[3] = system: phospholipidosis; details: cited from earlier work
[4] = Lung and spleen tissue exposure in BALB/c mice
[5] = Stability of BDQ, M2 and TBI-166 in mice plasma (LC-MS/MS validation)
[6] = in vivo; details: male, BALB/c, mouse, tissue-to-plasma ratio (Kp)
[7] = mouse, in vivo
[8] = biological target: T1, rCYP3A5 (Homo sapiens, UniProt P20815); test: Reaction phenotyping of BDQ in recombinant P450 enzymes (rCYPs method); type: in vitro ADME; details: BDQ 1 μM, CYP3A5
T1 construct: purchased BD Gentest (Woburn, MA, United States)

[9] = male, BALB/c, mouse, in vivo
[10] = biological target: T2, rCYP2C8 (Homo sapiens, UniProt P10632); test: Reaction phenotyping of BDQ in recombinant P450 enzymes (rCYPs method); type: in vitro ADME; details: BDQ 1 μM, CYP2C8
T2 construct: purchased BD Gentest (Woburn, MA, United States)
T2 sequence (P10632 1-490): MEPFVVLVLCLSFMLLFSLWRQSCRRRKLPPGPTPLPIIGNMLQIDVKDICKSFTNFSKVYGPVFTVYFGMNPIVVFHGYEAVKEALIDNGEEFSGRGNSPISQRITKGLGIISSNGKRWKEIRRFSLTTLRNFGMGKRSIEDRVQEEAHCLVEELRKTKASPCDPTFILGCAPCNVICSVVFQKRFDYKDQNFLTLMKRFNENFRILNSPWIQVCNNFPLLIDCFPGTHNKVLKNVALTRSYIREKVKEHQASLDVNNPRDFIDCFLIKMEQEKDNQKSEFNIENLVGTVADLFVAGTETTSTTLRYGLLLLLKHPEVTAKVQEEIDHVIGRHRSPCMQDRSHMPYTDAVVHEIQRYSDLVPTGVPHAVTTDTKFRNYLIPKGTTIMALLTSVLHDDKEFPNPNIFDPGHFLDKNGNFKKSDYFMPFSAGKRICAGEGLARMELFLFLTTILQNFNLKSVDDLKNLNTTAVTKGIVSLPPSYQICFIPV

[11] = biological target: T3, rCYP2A6 (Homo sapiens, UniProt P11509); test: as above; type: in vitro ADME; details: BDQ 1 μM, M2 formation, CYP2A6
T3 construct: purchased BD Gentest (Woburn, MA, United States)
T3 sequence (P11509 1-494): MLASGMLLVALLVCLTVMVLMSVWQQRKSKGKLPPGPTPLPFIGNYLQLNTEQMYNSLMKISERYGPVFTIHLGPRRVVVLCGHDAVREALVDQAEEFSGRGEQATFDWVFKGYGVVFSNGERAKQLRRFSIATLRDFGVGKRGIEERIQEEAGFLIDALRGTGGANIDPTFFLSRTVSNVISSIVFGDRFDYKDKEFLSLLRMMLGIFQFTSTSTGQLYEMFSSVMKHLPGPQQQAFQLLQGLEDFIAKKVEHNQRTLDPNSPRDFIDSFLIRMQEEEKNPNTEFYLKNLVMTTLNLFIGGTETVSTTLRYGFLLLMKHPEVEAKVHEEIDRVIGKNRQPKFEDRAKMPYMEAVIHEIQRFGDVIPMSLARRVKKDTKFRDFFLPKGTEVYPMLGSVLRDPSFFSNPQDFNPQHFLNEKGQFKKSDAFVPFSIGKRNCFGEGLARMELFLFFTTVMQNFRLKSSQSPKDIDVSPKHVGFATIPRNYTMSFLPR

[12] = biological target: T4, rCYP2C19 (Homo sapiens, UniProt P33261); test: as above; type: in vitro ADME; details: BDQ 1 μM, CYP2C19
T4 construct: purchased BD Gentest (Woburn, MA, United States)

[13] = biological target: T5, rCYP3A4 (Homo sapiens, UniProt P08684); test: as above; type: in vitro ADME; details: BDQ 1 μM, CYP3A4
T5 construct: purchased BD Gentest (Woburn, MA, United States)

[14] = system: CYP3A4/5; details: cited from earlier work
[15] = TBI-166 group (20 mg/kg), W4, LLOQ 5, 5, 15 ng/mL for BDQ, TBI-166, M2
[16] = TBI-166 group (20 mg/kg), W8, LLOQ 5, 5, 15 ng/mL for BDQ, TBI-166, M2

T1 sequence (P20815 whole entry): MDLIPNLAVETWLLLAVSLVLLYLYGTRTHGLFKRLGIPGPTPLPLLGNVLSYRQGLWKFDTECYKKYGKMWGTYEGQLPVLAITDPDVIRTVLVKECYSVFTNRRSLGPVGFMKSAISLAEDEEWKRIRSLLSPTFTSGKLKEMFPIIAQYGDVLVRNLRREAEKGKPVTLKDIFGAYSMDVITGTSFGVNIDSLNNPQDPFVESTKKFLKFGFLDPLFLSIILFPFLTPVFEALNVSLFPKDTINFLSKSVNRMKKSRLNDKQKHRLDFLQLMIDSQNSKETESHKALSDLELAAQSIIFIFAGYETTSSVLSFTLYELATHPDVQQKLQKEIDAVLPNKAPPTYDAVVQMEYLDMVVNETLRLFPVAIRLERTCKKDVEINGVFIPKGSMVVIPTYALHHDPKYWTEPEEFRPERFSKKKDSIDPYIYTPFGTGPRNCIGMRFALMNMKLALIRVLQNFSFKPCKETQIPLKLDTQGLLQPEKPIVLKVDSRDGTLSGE
T4 sequence (P33261 whole entry): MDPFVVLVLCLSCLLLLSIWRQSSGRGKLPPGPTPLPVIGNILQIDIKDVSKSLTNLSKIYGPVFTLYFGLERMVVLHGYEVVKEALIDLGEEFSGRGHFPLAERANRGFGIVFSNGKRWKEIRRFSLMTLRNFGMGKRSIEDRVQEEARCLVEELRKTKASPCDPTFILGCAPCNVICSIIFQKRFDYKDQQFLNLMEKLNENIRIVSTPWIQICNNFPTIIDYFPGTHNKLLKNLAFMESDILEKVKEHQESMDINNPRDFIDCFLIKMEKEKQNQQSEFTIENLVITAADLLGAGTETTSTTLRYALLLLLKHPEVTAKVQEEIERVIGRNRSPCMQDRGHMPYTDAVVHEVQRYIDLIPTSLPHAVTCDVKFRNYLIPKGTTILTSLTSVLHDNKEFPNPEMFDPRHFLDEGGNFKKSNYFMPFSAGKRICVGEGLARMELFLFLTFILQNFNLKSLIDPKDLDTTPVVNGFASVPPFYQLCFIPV
T5 sequence (P08684 whole entry): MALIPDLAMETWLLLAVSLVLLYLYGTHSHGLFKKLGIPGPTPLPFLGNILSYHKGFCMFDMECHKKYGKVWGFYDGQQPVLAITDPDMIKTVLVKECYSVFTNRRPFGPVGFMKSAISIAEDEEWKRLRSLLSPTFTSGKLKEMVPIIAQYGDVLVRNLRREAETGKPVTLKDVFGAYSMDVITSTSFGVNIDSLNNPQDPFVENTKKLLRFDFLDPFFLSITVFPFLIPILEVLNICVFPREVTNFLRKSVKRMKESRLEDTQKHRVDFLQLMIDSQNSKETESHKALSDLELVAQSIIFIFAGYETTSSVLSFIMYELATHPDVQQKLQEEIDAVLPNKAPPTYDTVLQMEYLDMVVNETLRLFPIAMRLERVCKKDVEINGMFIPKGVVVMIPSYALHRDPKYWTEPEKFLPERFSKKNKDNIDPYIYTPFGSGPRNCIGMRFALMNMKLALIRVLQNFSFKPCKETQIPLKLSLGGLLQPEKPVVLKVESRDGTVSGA

For CNCC[C@@](O)(c1cccc2ccccc12)[C@H](c1ccccc1)c1cc2cc(Br)ccc2nc1OC [M2, N-desmethyl-bedaquiline], the “mean plasma concentration in BDQ + TBI-166 group as percent of BDQ group” value ([1]; 1 h post dose) was 85%, the mean plasma concentration ([1]; 1 h post dose (so in the source), BDQ group) was 1,438 ng/mL and the mean plasma concentration ([1]; 1 h post dose, BDQ + TBI-166 group) was 1,235.36 ng/mL. The “mean plasma concentration in BDQ + TBI-166 group as percent of BDQ group” value ([1]; 3 h post dose) was 75%, the mean plasma concentration ([1]; 3 h post dose, BDQ + TBI-166 group) was 1,084.84 ng/mL and the mean plasma concentration ([1]; 3 h post dose, BDQ group) was 1,438.31 ng/mL. For the same compound, the “area under the curve ratio (AUCR)” value ([1]; BDQ + TBI-166 group vs BDQ group) was 0.66, the “AUC(0-t)” value ([1]; BDQ + TBI-166 group (Table S4)) was 76250 ± 8100 ng·h/mL and the “AUC(0-t)” value ([1]; BDQ group (Table S4)) was 115730 ± 25440 ng·h/mL. For the same compound, the “AUC(0-last)” value ([1]; plasma, BDQ + TBI-166 group) was 76,310 ± 5,901 h·ng/mL, the “AUC(0-last) as percent of single-drug group” value (from here on “AUC(0-last) as percent”) ([1]; plasma, BDQ + TBI-166 group) was 66% and the “AUC(0-∞)” value ([1]; plasma, BDQ + TBI-166 group) was 89,814 h·ng/mL. For the same compound, the C max ([1]; plasma, BDQ + TBI-166 group) was 1,235.36 ± 22.74 ng/mL, the “MRT(0-t)” value ([1]; plasma, BDQ + TBI-166 group) was 51.71 h and the T max ([1]; plasma, BDQ + TBI-166 group) was 1 h. The “t 1/2” value ([1]; plasma, BDQ + TBI-166 group (BDQ 25 mg/kg + TBI-166 20 mg/kg, gavage QD 21 days)) was 57.47 h, the “t 1/2” value ([1]; plasma, BDQ group (BDQ 25 mg/kg alone, gavage QD 21 days)) was 64.27 h and the “AUC(0-last)” value ([1]; plasma, BDQ group (BDQ alone)) was 115,704 ± 19,589 h·ng/mL. For the same compound, the “AUC(0-∞)” value ([1]; plasma, BDQ group (BDQ alone)) was 134,430 h·ng/mL, the C max ([1]; plasma, BDQ group (BDQ alone)) was 1,438.31 ± 127.21 ng/mL and the “MRT(0-t)” value ([1]; plasma, BDQ group (BDQ alone)) was 56.46 h. For the same compound, the T max ([1]; plasma, BDQ group (BDQ alone)) was 3 h, the “AUC(0-last) as percent” value ([1]; plasma, BDQ group (reference)) was 100% and the “decrease of AUC0-last after coadministration of BDQ with TBI-166” value ([1]; plasma, vs BDQ group) was 34%. The “plasma concentration after coadministration as percent of BDQ alone” value ([2]; 4 weeks) was 87%, the “plasma concentration after coadministration as percent of BDQ alone” value ([2]; 8 weeks) was 79% and the “Mean plasma concentration at three hours after oral administration” value (“Mean plasma concentration at three hours” for short) ([2]; BDQ + TBI-166 group, W4) was 970 ng/mL and 969.68 ± 206.81 ng/mL. For the same compound, the “Mean plasma concentration at three hours” value ([2]; BDQ + TBI-166 group, W8) was 948 ng/mL and 948.31 ± 60.21 ng/mL, the “Mean plasma concentration at three hours” value [2, 15] was “<LLOQ” and the “Mean plasma concentration at three hours” value [2, 16] was “<LLOQ”. For the same compound, the “higher cardiotoxicity by inducing phospholipidosis compared with BDQ” value [3] was 50 times, the “AUC(0-t)” value ([4]; Lung, BDQ + TBI-166 group) was 4940.02 ± 756.58 µg·h/g and the “tissue-to-plasma ratio (Kp)” value ([4]; Lung, BDQ + TBI-166 group) was 64.79. The “AUC(0-t)” value ([4]; Lung, BDQ group) was 4827.39 ± 818.42 µg·h/g, the “tissue-to-plasma ratio (Kp)” value ([4]; Lung, BDQ group) was 41.72 and the “AUC(0-t)” value ([4]; Spleen, BDQ + TBI-166 group) was 6358.44 ± 1054.47 µg·h/g. The “tissue-to-plasma ratio (Kp)” value ([4]; Spleen, BDQ + TBI-166 group) was 83.39, the “AUC(0-t)” value ([4]; Spleen, BDQ group) was 4703.39 ± 1052.83 µg·h/g and the “tissue-to-plasma ratio (Kp)” value ([4]; Spleen, BDQ group) was 40.65. The “exposure (AUC0-t) with vs without coadministration” value ([4]; lungs) was “similar”, the “increase of exposure (AUC0-t) after coadministration of BDQ with TBI-166” value ([4]; spleens) was 1.5 fold and the “Stability in mice plasma, RE” value ([5]; 4℃ for 24 h, 45 ng/mL) was 5.42%. For the same compound, the “Stability in mice plasma, RE” value ([5]; 4℃ for 24 h, 225 ng/mL) was 13.08%, the “Stability in mice plasma, RE” value ([5]; 4℃ for 24 h, 2250 ng/mL) was 9.97% and the “Stability in mice plasma, RE” value ([5]; -40℃ for 7 d, 45 ng/mL) was 15.73%. For the same compound, the “Stability in mice plasma, RE” value ([5]; -40℃ for 7 d, 225 ng/mL) was 2.77%, the “Stability in mice plasma, RE” value ([5]; -40℃ for 7 d, 2250 ng/mL) was 9.33% and the “Stability in mice plasma, RE” value ([5]; Freeze-thaw three cycles, 45 ng/mL) was 12.58%. For the same compound, the “Stability in mice plasma, RE” value ([5]; Freeze-thaw three cycles, 225 ng/mL) was 17.75%, the “Stability in mice plasma, RE” value ([5]; Freeze-thaw three cycles, 2250 ng/mL) was 6.90% and the “Stability in mice plasma, RE” value ([5]; In auto-sample for 24 h, 45 ng/mL) was 14.04%. For the same compound, the “Stability in mice plasma, RE” value ([5]; In auto-sample for 24 h, 225 ng/mL) was 17.58%, the “Stability in mice plasma, RE” value ([5]; In auto-sample for 24 h, 2250 ng/mL) was 4.83% and the “Stability in mice plasma, RE” value ([5]; Room temperature for 24 h, 45 ng/mL) was 9.38%. The “Stability in mice plasma, RE” value ([5]; Room temperature for 24 h, 225 ng/mL) was 17.30% and the “Stability in mice plasma, RE” value ([5]; Room temperature for 24 h, 2250 ng/mL) was 4.03%.
For COc1nc2ccc(Br)cc2cc1[C@@H](c1ccccc1)[C@@](O)(CCN(C)C)c1cccc2ccccc12 [BDQ, Bedaquiline], the Kp [6] was 19.7, the “exposure (AUC0-t) with vs without coadministration” value [7] was “similar” and the “Mean plasma concentration at three hours” value [2, 15] was “<LLOQ”. The “Mean plasma concentration at three hours” value [2, 16] was “<LLOQ”, the concentration at 3 h ([2]; oral, 25 mg/kg, BDQ group (25 mg/kg), W4, LLOQ 5, 5, 15 ng/mL for BDQ, TBI-166, M2) was 657 ± 142 ng/mL and the concentration at 3 h ([2]; oral, 25 mg/kg, BDQ group (25 mg/kg), W8, LLOQ 5, 5, 15 ng/mL for BDQ, TBI-166, M2) was 920 ± 126 ng/mL. For the same compound, the concentration at 3 h ([2]; po, BDQ + TBI-166 group, W4) was 647 ± 199 ng/mL, the concentration at 3 h ([2]; po, BDQ + TBI-166 group, W8) was 889 ± 171 ng/mL and the “f m (fraction of drug metabolism by individual CYP enzyme)” value [8] was 3.5%. The “AUC(0-last) as percent” value [9] was 100%, the “MRT(0-t)” value ([9]; po, 25 mg/kg) was 52.80 h and the “f m (fraction of drug metabolism by individual CYP enzyme)” value [10] was 8.8%. The “f m (fraction of drug metabolism by individual CYP enzyme)” value [11] was 3.1%, the “f m (fraction of drug metabolism by individual CYP enzyme)” value [12] was 5.7% and the “f m (fraction of drug metabolism by individual CYP enzyme)” value [13] was 73.1%.
In the case of CC(C)/N=c1\cc2n(-c3ccc(Cl)cc3)c3ccccc3nc-2cc1Nc1ccc(Cl)cc1 [clofazimine], the CYP3A4/5 inhibitor strength [14] is listed as “moderate-to-strong”.

From publication PMC10582325 (Frontiers in Pharmacology, 2023)
